Columns and labels:
[1] = system: MOG35-55-induced EAE mouse spinal cord; assay: EAE mouse model, spinal cord H&E and LFB pathological scoring; format: in vivo, C57BL/6 mice; conditions: day 28
Experimental: For each group consisting of 5 mice, euthanasia was performed followed by cardiac perfusion with saline. Subsequently, an equal volume of 10% formalin was perfused. Spinal cord tissues from the mice were collected, soaked in […], and then sectioned. Hematoxylin & Eosin (H&E) staining and Luxol Fast Blue (LFB) staining were performed, along with pathological scoring.
At the end of the experiment, the spinal cords of mice were collected, with 2 in the normal control group and 5 in each of the remaining groups. The spinal cords were fixed in formalin, followed by paraffin embedding and sectioning. Two sections were taken from each mouse and subjected to H&E and FLB staining for pathological observation. Scoring was done for cell infiltration, lesion areas, and demyelination. […] Specifically, after H&E staining of the mouse spinal cord, cell infiltration (A) and lesion area (B) in the spinal cord sections were counted. After LFB staining, the degree of demyelination (C) in the spinal cord sections was scored. Data were presented as mean±standard error of the mean (mean±SEM). *p<0.05, **p<0.01, ***p<0.001, ****p<0.0001, vs. vehicle control group (Vehicle), one-way ANOVA.

[2] = system: IL-2-induced pSTAT5 in hPBMC; assay: IL-2-induced pSTAT5 in hPBMC (flow cytometry, CD4 positive cells); format: cell-based; conditions: Homo sapiens, 4 ng/mL IL-2, CD4 positive cells
Experimental: • 1) Preparation of culture medium: 1640 medium+10% fetal bovine serum+1% penicillin/streptomycin+1% non-essential amino acids (all percentages were v/v) • 2) Cells were thawed in a 37° C. water bath and then centrifuged. The cell concentration was adjusted to 5×10^5 cells/mL using the prepared culture medium. • 3) Cell suspension was seeded into a 96-well round-bottom plate at 200 μL/well and incubated at 37° C. for 90 minutes. • 4) Drugs were added, followed by a 37° C. incubation for 30 minutes. • 5) Cells were then stimulated by adding 10 ng/mL of IL-6 or 4 ng/mL of IL-2, followed by a 37° C. incubation for 15 minutes.
• 1) After completing the stimulation, cells were centrifuged and washed once with staining buffer (DPBS+2% bovine serum albumin). Antibodies were then added for a 30-minute staining process at 4° C. […]
• 1) Response %=[(MFI value of drug-treated well−mean MFI value of control well)/(mean MFI value of DMSO well−mean MFI value of control well)]*100% was calculated. • 2) The calculated Response % values were input into GraphPad Prism 8 software. […]

[3] = system: IL-6 secretion by astrocytes; assay: IL-6 release caused by NMO-IgG in astrocytes (ELISA); format: cell-based, rat; conditions: Rattus norvegicus, Astrocyte, 24 h, NMO-IgG 250 μg/mL, read-out: IL-6 inhibition rate, Mean
Experimental: The compound was dissolved in DMSO to prepare a compound stock solution. The compound stock solution was then serially diluted in a gradient using DMSO to prepare a series of 1000× test compound solutions. These 1000× test compound solutions were further diluted at a ratio of 1:100 with cell culture medium to prepare a series of 10× test compound solutions. Finally, according to the experimental well plate loading design, a corresponding volume of 10× solution was added to each well, with two duplicate wells for each drug concentration. In the experiment, the test solution (i.e., 1× solution) had varying final concentrations of compound I, specifically 20, 2.222, 0.247, and 0.027 μM; the concentration of Meprednisone compound (i.e., 1× solution) was 30 μM; the concentration of BAY 11-7082 (i.e., 1× solution) was 5 μM; the final DMSO concentration in each well was 0.1%. DMSO without compound was added to blank control wells, with a final concentration of 0.1%.
1) Extraction and separation of primary astrocytes: A mixed glial cell culture medium was prepared from the cerebral cortex of 1-day-old newborn rats. After euthanizing the newborn rats, they were immersed in alcohol. Their skin was cut, the brains were removed, and the cerebral cortex was isolated. The tissues were then ground to remove the connective tissue, and the mixed glial cells were sieved through a 70 µm cell strainer. These cells were then seeded into a cell culture plate coated with poly-L-lysine. The culture medium was DMEM, containing 10% heat-inactivated fetal bovine serum, 100 U/mL penicillin, and […]. After about 12 days of in vitro culture, the cells reached confluence. Microglia, endothelial cells, and oligodendrocytes were removed from the mixed glial cells by vibratory shaking. […] 2) Culture of astrocytes: The isolated astrocytes were cultured in a 37° C., 5% CO2 incubator. The culture medium was changed every 3 to 4 days. The astrocytes could also be digested using trypsin (0.25%) and then frozen in liquid nitrogen for future use.
Human NMO-IgG was isolated from a sterile-filtered serum pool (AQP4-IgG-positive NMOSD) using a HiTrap Protein G-HP column (GE Healthcare). The serum samples were diluted at a ratio of 1:1 with binding buffer, and after packing the purification column with binding buffer, the serum sample was added. The column was subsequently washed with binding buffer again and the antibodies were eluted according to the instructions. Finally, the antibodies were concentrated on an Amicon Ultra-4 centrifugal filter (millipore) with a 10,000 MW cutoff. The concentrated immunoglobulin was filtered through a 0.22 µm filter. The protein concentration of the concentrate was determined using the BCA method and stored at −80° C. The total IgG extracted from the serum of NMOSD patients was NMO-IgG (containing AQP4-IgG), and the cells were stimulated at a protein concentration of 250 μg/mL during the experiment.
Astrocytes were cultured or revived until day 2 and then seeded into a 24-well plate at a density of 1.5×10^5 cells per well. The test compounds, including compound I, Meprednisone, and BAY11-7082, were pre-incubated with the cells for 30 minutes at the concentrations previously described. Subsequently, in each group, the cells continued to be stimulated with NMO-IgG at a final working concentration of 250 μg/mL for 24 hours to induce astrocyte damage. Normal human Control-IgG (CON-IgG) stimulation at a final working concentration of 250 μg/mL was used as a negative control.
After 24 hours of NMO-IgG stimulation of cells, the supernatant was collected. IL-6 levels were detected using an enzyme-linked immunosorbent assay (ELISA) following the instructions of the IL-6 ELISA kit (R&D Systems, USA, #RD6000B). The absorbance (OD values) of the samples in each group was measured, and the concentration of IL-6 in each experimental group was calculated through standard curve fitting. […]

IC50 [2]: 36.3 nM
Structure (SMILES): CN(c1ncnc2[nH]ccc12)[C@@H]1CCc2cc(C#N)nn2C1 [Compound I]
cell infiltration, lesion area and demyelination compared with Fingolimod ([1]; 10 mg/kg BID): significantly better therapeutic effect than the positive drug Fingolimod group
damage to the spinal cord caused by EAE modeling ([1]; all doses (3, 10, 20 mg/kg BID, 20 mg/kg QD)): significantly inhibited the damage to the spinal cord
inhibition at 0.027 µM ([3]; 0.027 μM): 30.4%
inhibition at 0.247 µM ([3]; 0.247 μM): 54%
inhibition at 2.222 µM ([3]; 2.222 μM): 94.3%
inhibition at 20 µM ([3]; 20 μM): ~98.8%

— US20240238299A1, “USE OF PYRROLOPYRIMIDINE COMPOUND” (GUANGZHOU JOYO PHARMATECH CO., LTD, priority 2021, published 2024)
